Assay results taken from the NIST ThermoML archive (doi:10.1016/j.jct.2016.02.008).
Numbers after ± are expanded uncertainties.

Assays:
[1] = Crystal; for Normal melting temperature: DTA; for mass density: 298.15 K, 101.33 kPa, measuring the mass and volume of a pellet
[2] = molar heat capacity at constant pressure; settings: 298.15 K; 101.33 kPa; Crystal; Small sample (50 mg) DSC
[3] = Molar enthalpy of transition or fusion; settings: Crystal; DSC

Row | Normal melting temperature [1] [°C] | molar heat capacity at constant pressure [2] [J/K/mol] | Molar enthalpy of transition or fusion [3] [kcal/mol] | mass density [1] [kg/m3] | Structure (SMILES)
1 | 66 ± 0.9 | 192.1 ± 5.3 | 5.09 ± 0.12 |  | CC(=O)c1cc2ccccc2o1 [2-acetylbenzofuran]
2 | 244.6 ± 0.6 | 179 ± 4.6 | 7.5 ± 0.165 | 1490 ± 120 | O=C(O)c1cc2ccccc2s1 [benzo[b]thiophene-2-carboxylic acid]
3 | 196.7 ± 0.6 | 184.8 ± 3.9 | 6.49 ± 0.155 | 1340 ± 60 | O=C(O)c1cc2ccccc2o1 [benzofuran-2-carboxylic acid]
4 | 210.0 ± 0.8 | 178.4 ± 5.5 | 5.49 ± 0.153 |  | O=C(O)c1cc2ccccc2[nH]1 [indole-2-carboxylic acid]
